Test results: patent US9464082B2, “Aryl and arylalkyl substituted pyrazolyl and pyrimidinyl tricyclic enones as antioxidant inflammation modulators” (AbbVie Inc., priority 2014, dated 2016)

Tested on: IFNγ-Induced NO Production
Assay: Nitric Oxide Suppression Assay (Suppression of IFNγ-Induced NO Production)
Type: cell-based
Conditions: RAW264.7; RAW 264.7 mouse macrophage cells; 2 hour pre-treatment with compound (3 μM to 0.3 nM, 10 point curve); 20 ng/mL interferon gamma, ~18 hour; Griess detection; n=2-3 in duplicates
How it was run: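 Mouse RAW 264.7 macrophages pre-treated 2 h at 37 °C with compound (3 μM to 0.3 nM, 10 points; DMSO ≤1%), then stimulated with 20 ng/mL interferon gamma for ~18 h. Supernatant nitrite measured by Griess reaction, absorbance 520–550 nm. IC50 from curve fit of signal normalised to IFNγ alone, mean n=2-3 in duplicate.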

SMILES	IC50 [nM]
Cc1nc(-c2cccc(-c3cccc(NS(C)(=O)=O)c3)c2)c2c(n1)[C@@]1(c3ccccc3)C=C(C#N)C(=O)[C@@H](C)[C@@H]1CC2 [Example 124, N-{3′-[(6aS,7S,10aR)-9-cyano-2,7-dimethyl-8-oxo-10a-phenyl-5,6,6a,7,8,10a-hexahydrobenzo[h]quinazolin-4-yl]biphenyl-3-yl}methanesulfonamide]	1.35
CC(=O)OCCCc1cccc(-c2nc(C)nc3c2CC[C@H]2[C@H](C)C(=O)C(C#N)=C[C@]32c2ccccc2)c1 [Example 125, 3-{3-[(6aS,7S,10aR)-9-cyano-2,7-dimethyl-8-oxo-10a-phenyl-5,6,6a,7,8,10a-hexahydrobenzo[h]quinazolin-4-yl]phenyl}propyl acetate]	4.69
C[C@@H]1C(=O)C(C#N)=C[C@]2(c3ccccc3)c3n[nH]c(-c4cncc(CO)c4)c3CC[C@@H]12 [Example 126, (5aS,6S,9aR)-3-[5-(hydroxymethyl)pyridin-3-yl]-6-methyl-7-oxo-9a-phenyl-4,5,5a,6,7,9a-hexahydro-2H-benzo[g]indazole-8-carbonitrile]	9.67
Cc1nc(-c2cnn(CCO)c2)c2c(n1)[C@@]1(c3ccccc3)C=C(C#N)C(=O)[C@@H](C)[C@@H]1CC2 [Example 127, (6aS,7S,10aR)-4-[1-(2-hydroxyethyl)-1H-pyrazol-4-yl]-2,7-dimethyl-8-oxo-10a-phenyl-5,6,6a,7,8,10a-hexahydrobenzo[h]quinazoline-9-carbonitrile]	2.27
C[C@@H]1C(=O)C(C#N)=C[C@]2(c3cccc(OCc4ccccc4)c3)c3ncncc3CC[C@@H]12 [Example 128, (6aS,7S,10aR)-10a-[3-(benzyloxy)phenyl]-7-methyl-8-oxo-5,6,6a,7,8,10a-hexahydrobenzo[h]quinazoline-9-carbonitrile]	7.82
Cc1nc(-c2ccc(-c3cncnc3)cc2)c2c(n1)[C@@]1(c3ccccc3)C=C(C#N)C(=O)[C@@H](C)[C@@H]1CC2 [Example 129, (6aS,7S,10aR)-2,7-dimethyl-8-oxo-10a-phenyl-4-[4-(pyrimidin-5-yl)phenyl]-5,6,6a,7,8,10a-hexahydrobenzo[h]quinazoline-9-carbonitrile]	13
Cc1nc(-c2cncnc2)c2c(n1)[C@@]1(c3ccccc3)C=C(C(N)=O)C(=O)[C@@H](C)[C@@H]1CC2 [Example 130, (6aS,7S,10aR)-2,7-dimethyl-8-oxo-10a-phenyl-4-(pyrimidin-5-yl)-5,6,6a,7,8,10a-hexahydrobenzo[h]quinazoline-9-carboxamide]	> 3000
C[C@@H]1C(=O)C(C(N)=O)=C[C@]2(c3ccccc3)c3ncncc3CC[C@@H]12 [Example 131, (6aS,7S,10aR)-7-methyl-8-oxo-10a-phenyl-5,6,6a,7,8,10a-hexahydrobenzo[h]quinazoline-9-carboxamide]	1390
Cc1nc(-c2cnc(O)c(Br)c2)c2c(n1)[C@@]1(c3ccccc3)C=C(C#N)C(=O)[C@@H](C)[C@@H]1CC2 [Example 132, (6aS,7S,10aR)-4-(5-bromo-6-hydroxypyridin-3-yl)-2,7-dimethyl-8-oxo-10a-phenyl-5,6,6a,7,8,10a-hexahydrobenzo[h]quinazoline-9-carbonitrile]	387
Cc1nc(-c2ccc(O)nc2)c2c(n1)[C@@]1(c3ccccc3)C=C(C#N)C(=O)[C@@H](C)[C@@H]1CC2 [Example 133, (6aS,7S,10aR)-4-(6-hydroxypyridin-3-yl)-2,7-dimethyl-8-oxo-10a-phenyl-5,6,6a,7,8,10a-hexahydrobenzo[h]quinazoline-9-carbonitrile]	311
COC(=O)c1ccc(-c2cccc(-c3nc(C)nc4c3CC[C@H]3[C@H](C)C(=O)C(C#N)=C[C@]43c3ccccc3)c2)cc1 [Example 134, methyl 3′-[(6aS,7S,10aR)-9-cyano-2,7-dimethyl-8-oxo-10a-phenyl-5,6,6a,7,8,10a-hexahydrobenzo[h]quinazolin-4-yl]biphenyl-4-carboxylate]	6.9
Cc1nc(-c2cccc(-c3ccc(C(N)=O)cc3)c2)c2c(n1)[C@@]1(c3ccccc3)C=C(C#N)C(=O)[C@@H](C)[C@@H]1CC2 [Example 135, 3′-[(6aS,7S,10aR)-9-cyano-2,7-dimethyl-8-oxo-10a-phenyl-5,6,6a,7,8,10a-hexahydrobenzo[h]quinazolin-4-yl]biphenyl-4-carboxamide]	8.22
C[C@@H]1C(=O)C(C#N)=C[C@]2(c3ccccc3)c3nc(-c4ccc(C(N)=O)cc4)ncc3CC[C@@H]12 [Example 136, 4-[(6aS,7S,10aR)-9-cyano-7-methyl-8-oxo-10a-phenyl-5,6,6a,7,8,10a-hexahydrobenzo[h]quinazolin-2-yl]benzamide]	3.37
C[C@@H]1C(=O)C(C#N)=C[C@]2(c3cccc(O)c3)c3ncncc3CC[C@@H]12 [Example 137, (6aS,7S,10aR)-10a-(3-hydroxyphenyl)-7-methyl-8-oxo-5,6,6a,7,8,10a-hexahydrobenzo[h]quinazoline-9-carbonitrile]	8.93
C[C@@H]1C(=O)C(C#N)=C[C@]2(c3ccccc3)c3nc(-c4ccc(C(=O)N(C)C)cc4)ncc3CC[C@@H]12 [Example 138, 4-[(6aS,7S,10aR)-9-cyano-7-methyl-8-oxo-10a-phenyl-5,6,6a,7,8,10a-hexahydrobenzo[h]quinazolin-2-yl]-N,N-dimethylbenzamide]	5.26
Cc1nc(-c2ccc(-c3cncn3C)cc2)c2c(n1)[C@@]1(c3ccccc3)C=C(C#N)C(=O)[C@@H](C)[C@@H]1CC2 [Example 139, (6aS,7S,10aR)-2,7-dimethyl-4-[4-(1-methyl-1H-imidazol-5-yl)phenyl]-8-oxo-10a-phenyl-5,6,6a,7,8,10a-hexahydrobenzo[h]quinazoline-9-carbonitrile]	19
C[C@@H]1C(=O)C(C#N)=C[C@]2(c3ccccc3)c3n[nH]c(-c4ccnnc4)c3CC[C@@H]12 [Example 140, (5aS,6S,9aR)-6-methyl-7-oxo-9a-phenyl-3-(pyridazin-4-yl)-4,5,5a,6,7,9a-hexahydro-2H-benzo[g]indazole-8-carbonitrile]	8.45
C[C@@H]1C(=O)C(C#N)=C[C@]2(c3ccccc3)c3n[nH]c(-c4cnn(CC(=O)O)c4)c3CC[C@@H]12 [Example 141, {4-[(5aS,6S,9aR)-8-cyano-6-methyl-7-oxo-9a-phenyl-4,5,5a,6,7,9a-hexahydro-2H-benzo[g]indazol-3-yl]-1H-pyrazol-1-yl}acetic acid]	4
COC(=O)c1cccc([C@]23C=C(C(N)=O)C(=O)[C@@H](C)[C@@H]2CCc2cncnc23)c1 [Example 142, methyl 3-[(6aS,7S,10aR)-9-carbamoyl-7-methyl-8-oxo-6,6a,7,8-tetrahydrobenzo[h]quinazolin-10a(5H)-yl]benzoate]	2280
C[C@@H]1C(=O)C(C#N)=C[C@]2(c3ccccc3)c3nn(C)c(-c4ccc(-c5ccncc5)cc4)c3CC[C@@H]12 [Example 143, (5aS,6S,9aR)-2,6-dimethyl-7-oxo-9a-phenyl-3-[4-(pyridin-4-yl)phenyl]-4,5,5a,6,7,9a-hexahydro-2H-benzo[g]indazole-8-carbonitrile]	69.3
C[C@@H]1C(=O)C(C#N)=C[C@]2(c3ccccc3)c3nn(C)c(-c4ccc(-c5cncnc5)cc4)c3CC[C@@H]12 [Example 144, (5aS,6S,9aR)-2,6-dimethyl-7-oxo-9a-phenyl-3-[4-(pyrimidin-5-yl)phenyl]-4,5,5a,6,7,9a-hexahydro-2H-benzo[g]indazole-8-carbonitrile]	18.1
Cc1nc(-c2ccc(-c3cncnc3)cc2)c2c(n1)[C@@]1(c3ccccc3)C=C(C(N)=O)C(=O)[C@@H](C)[C@@H]1CC2 [Example 145, (6aS,7S,10aR)-2,7-dimethyl-8-oxo-10a-phenyl-4-[4-(pyrimidin-5-yl)phenyl]-5,6,6a,7,8,10a-hexahydrobenzo[h]quinazoline-9-carboxamide]	> 1000
Cc1nc(-c2ccc(N3CCOCC3)c(Br)c2)c2c(n1)[C@@]1(c3ccccc3)C=C(C#N)C(=O)[C@@H](C)[C@@H]1CC2 [Example 146, (6aS,7S,10aR)-4-[3-bromo-4-(morpholin-4-yl)phenyl]-2,7-dimethyl-8-oxo-10a-phenyl-5,6,6a,7,8,10a-hexahydrobenzo[h]quinazoline-9-carbonitrile]	52.2
Cc1nc(Nc2cccnc2)c2c(n1)[C@@]1(c3ccccc3)C=C(C#N)C(=O)[C@@H](C)[C@@H]1CC2 [Example 147, (6aS,7S,10aR)-2,7-dimethyl-8-oxo-10a-phenyl-4-(pyridin-3-ylamino)-5,6,6a,7,8,10a-hexahydrobenzo[h]quinazoline-9-carbonitrile]	48
C[C@@H]1C(=O)C(C#N)=C[C@]2(c3ccccc3)c3nn(C)c(-c4cccc(Br)c4)c3CC[C@@H]12 [Example 148, (5aS,6S,9aR)-3-(3-bromophenyl)-2,6-dimethyl-7-oxo-9a-phenyl-4,5,5a,6,7,9a-hexahydro-2H-benzo[g]indazole-8-carbonitrile]	31.5
C[C@@H]1C(=O)C(C#N)=C[C@]2(c3ccccc3)c3nn(C)c(-c4cccc(-c5ccc(N)cc5)c4)c3CC[C@@H]12 [Example 149, (5aS,6S,9aR)-3-(4′-aminobiphenyl-3-yl)-2,6-dimethyl-7-oxo-9a-phenyl-4,5,5a,6,7,9a-hexahydro-2H-benzo[g]indazole-8-carbonitrile]	7.32
C[C@@H]1C(=O)C(C#N)=C[C@]2(c3ccccc3)c3nn(C)c(-c4cccc(-c5cccc(NS(C)(=O)=O)c5)c4)c3CC[C@@H]12 [Example 150, N-{3′-[(5aS,6S,9aR)-8-cyano-2,6-dimethyl-7-oxo-9a-phenyl-4,5,5a,6,7,9a-hexahydro-2H-benzo[g]indazol-3-yl]biphenyl-3-yl}methanesulfonamide]	2.26
C[C@@H]1C(=O)C(C#N)=C[C@]2(c3ccccc3)c3nn(C)c(-c4cccc(-c5ccnnc5)c4)c3CC[C@@H]12 [Example 151, (5aS,6S,9aR)-2,6-dimethyl-7-oxo-9a-phenyl-3-[3-(pyridazin-4-yl)phenyl]-4,5,5a,6,7,9a-hexahydro-2H-benzo[g]indazole-8-carbonitrile]	6.81
